From patent publication US6716865B1, “Benzoxa- and benzthiazoles” (Novartis AG, priority 1999, dated 2004)
pIC50: −log10 of the molar value.

Key:
[1] = biological target: T1, CHO cells stably transfected with human steroid sulfatase (CHO/STS) (Homo sapiens, UniProt P08842); test: Steroid sulfatase inhibition in the CHO/STS assay; type: cell-based; details: assay 2, CHO/STS cells, overnight incubation, MUS substrate
T1 construct: expressed in transfected cells; host or cells: CHO cells, stably transfected
T1 sequence (P08842 22-583): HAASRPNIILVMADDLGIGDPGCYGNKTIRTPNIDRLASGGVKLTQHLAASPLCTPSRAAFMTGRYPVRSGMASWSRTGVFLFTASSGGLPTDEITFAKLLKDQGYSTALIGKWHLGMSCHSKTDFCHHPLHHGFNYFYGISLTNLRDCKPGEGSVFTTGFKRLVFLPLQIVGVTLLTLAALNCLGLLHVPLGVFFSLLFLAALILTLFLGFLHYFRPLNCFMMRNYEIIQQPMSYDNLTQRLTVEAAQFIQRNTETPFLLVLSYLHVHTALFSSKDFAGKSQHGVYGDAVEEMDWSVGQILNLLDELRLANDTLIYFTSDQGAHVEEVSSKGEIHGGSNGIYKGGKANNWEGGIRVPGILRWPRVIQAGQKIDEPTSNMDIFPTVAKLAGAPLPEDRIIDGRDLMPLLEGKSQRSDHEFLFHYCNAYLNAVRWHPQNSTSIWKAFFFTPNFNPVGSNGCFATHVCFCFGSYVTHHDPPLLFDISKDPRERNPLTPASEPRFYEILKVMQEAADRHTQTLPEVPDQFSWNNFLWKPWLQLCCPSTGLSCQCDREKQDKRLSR
Experimental: 2. Steroid sulfatase inhibition in the CHO/STS assay:
CHO cells stably transfected with human steroid sulfatase (CHO/STS) are seeded into microtiter plates. After reaching approximately 90% confluency, they are incubated overnight with graded concentrations of test substances. They are then fixed with 4% paraformaldehyde for 10 minutes at room temperature and washed 4 times with PBS before incubation with 100 μl/well 0.5 mM 4-methylumbelliferyl sulfate (MUS) dissolved in 0.1M Tris-HCl, pH 7.5. The enzyme reaction is carried out at 37° C. for one hour. Then 50 μl/well stop solution (1M Tris-HCl, pH 10.4) are added. The enzyme reaction solutions are transferred to white plates (Microfluor, Dynex, Chantilly, Va., USA) and read in a Fluoroskan II fluroescence microtiter plate reader. Reagent blanks are subtracted from all values. For drug testing, the fluorescence units (FU) are divided by the optical density readings after staining cellular protein with sulforhodamine B (OD550) in order to correct for variations in cell number. IC50 values are determined by linear interpolation between two bracketing points. In each assay with inhibitors, estrone 3-O-sulfamate is run as a reference compound, and the IC50 values are normalized to estrone 3-O-sulfamate:
relative IC50=IC50 compound/IC50 estrone 3-O-sulfamate.

[2] = biological target: T2, Purified human steroid sulfatase (Homo sapiens, UniProt P08842); test: Steroid sulfatase inhibition in vitro (p-nitrocatechol sulfate cleavage)
T2 sequence (P08842 22-583): T1 sequence (P08842 22-583)
Experimental: Steroid sulfatase inhibition in vitro:
Purified human steroid sulfatase not only is capable of cleaving steroid sulfates, but also readily cleaves aryl sulfates, such as p-nitrocatechol sulfate which is used herein. Assay mixtures are prepared by consecutively dispensing the following solutions into the wells of flat-bottom microtiter plates:
1) 50 μl inhibitor dilution in buffer (=0.1 M Tris-HCl, ph 7.5, 0.1% Triton X-100);
2) 50 μl substrate (=20 mM p-nitrocatechol sulfate in buffer)
3) 50 μl enzyme dilution to give a final concentration of 75 nM steroid sulfatase.
Plates are incubated at 37° C. for 30 minutes. The assay is stopped by addition of 100 μl of 1 N NaOH, and optical density measured in a microplate reader at 492 nm. […] IC50 values are calculated by nonlinear regression of the concentration/optical density data using the program Grafit (Erithacus Ltd.). Reported values are the result of three determinations.
From the fluorescence intensity data (I) obtained at different concentrations (c) of the test compound, the concentration inhibiting the enzymatic activity at 50% (IC50) is calculated using the equation [formula]
Relative IC50 values (rel IC50) are defined as follows: [formula]

rel IC50 (IC50 compound/IC50 estrone 3-O-sulfamate) [1]: 1.25 | pIC50 [2]: ~6.01
Compound: NS(=O)(=O)Oc1ccc2nc(C=C3C4CC5CC(C4)CC3C5)oc2c1 [Example 12, sulfamic acid 2-(adamantan-2-ylidenemethyl)benzoxazol-6-yl ester]
